Results reported in patent publication US20160257697A1, “THIOPHENE-SUBSTITUTED TETRACYCLIC COMPOUNDS AND METHODS OFUSE THEREOF FOR THE TREATMENT OF VIRAL DISEASES” (priority 2013, published 2016).
Read-outs that look alike come from different tables or passages of the source.

How the values were obtained:
Assay in all cases: microbe, parasite or virus in culture
Format in all cases: cell-based, Hepatitis C virus (HCV)
Conditions in all cases: Replicon Assay A
HCV replicon 1A = test system: HCV replicon 1A
Description: (§1) To measure cell-based anti-HCV activity of compounds of the present invention, two complimentary assays were employed using various replicons. In the first assay (“Replicon Assay A”), replicon cells were seeded at 2000 cells/well in 384-well 384-well flat bottom tissue culture treated clear bottom plate (Corning 3707) in the presence of the test compound. […] The final concentration of DMSO was 0.5%. Fetal bovine serum was 5%, in the assay media. Cells were harvested on day 3 by removing media and washing the cells with a suitable wash buffer. The cells are lysed with the addition of 1× Qiagen lysis buffer (Cat #1062731). The replicon RNA level was measured using real time PCR (TaqMan® EZ RT-PCR, Applied Biosystems 403028) with the following primers and probes: […]
(§2) Cyclophilin RNA was used as endogenous control and was amplified in the same reaction as NS5B (multiplex PCR). The real-time RT-PCR reactions were run on ABI PRISM 7900HT Sequence Detection System using the following program: 50° C. for 2 minutes, 60° C. for 30 minutes, 95° C. for 5 minutes, 40 cycles of 94° C. for 20 sec, 55° C. for 1 minutes.
(§3) The amount of HCV replicon RNA per cell is quantified using a linear regression curve for a known nanogram (ng) amount of HCV replicon total RNA. This is established by plotting the Cycle Threshold values (Ct) from the Neo probe and primer set versus the log (ng) for each HCV replicon total RNA standard. The amount of HCV RNA for each replicon sample is calculated by taking the sample's Ct value, minus the line intercept, divided by the slope of the line. Similarly, the amount of Cyclophilin mRNA per cell is also quantified using a linear regression curve for a known nanogram (ng) amount of HCV replicon total RNA. Again, this is established by plotting the Cycle Threshold values (Ct) from the Cyclophilin probe and primer set versus the log (ng) for each HCV replicon total RNA standard.
(§4) Data for replicons 1A, 1AY93H and 2B were obtained using Replicon Assay A and data for replicons 1AQ30D and 1B were obtained using Replicon Assay B.

HCV replicon 1AY93H = test system: HCV replicon 1AY93H
Description: as §1, §2, §3, §4

HCV replicon 2B = test system: HCV replicon 2B
Description: as §1, §2, §3, §4

[1] = Hepatitis C virus, HCV replicon 1A
[2] = read-out: 1A Y93H IC50, HCV replicon 1A Y93H
[3] = read-out: 1A Y93H IC50, replicon 1AY93H

## COC(=O)N[C@H](C(=O)N1CCC[C@H]1c1ncc(-c2cc(F)c3c(c2)OC(c2cc4ccccc4s2)n2c-3cc3cc(-c4cnc([C@@H]5C[C@H]6C[C@H]6N5C(=O)[C@@H](NC(=O)OC)C(C)C)[nH]4)ccc32)[nH]1)C(C)C (single isomer, unassigned) [Compound 614]
HCV replicon 1A; [1]
  IC50: 0.0015 nM
HCV replicon 1AY93H; [2]
  IC50: 2.21 nM

## COC(=O)NC(C(=O)N1CCC[C@H]1c1ncc(-c2cc(F)c3c(c2)OC(c2ccc(C4CC4)s2)n2c-3cc3cc(-c4cnc([C@@H]5CCCN5C(=O)[C@@H](NC(=O)OC)C(C)C)[nH]4)ccc32)[nH]1)C1CCOC(C)(C)C1 (single isomer, unassigned) [Compound 213]
HCV replicon 1A; replicon 1A
  IC50: 0.0653 nM
HCV replicon 1AY93H; [3]
  IC50: 13.6 nM

## COC(=O)NC(C(=O)N1CCC[C@H]1c1ncc(-c2ccc3c(c2)cc2n3C(c3cc(C)c(C)s3)Oc3cc(-c4cnc([C@@H]5CCCN5C(=O)[C@@H](NC(=O)OC)C(C)C)[nH]4)cc(F)c3-2)[nH]1)C(C)(C)F (single isomer, unassigned) [Compound 42]
HCV replicon 1A; replicon 1A
  IC50: 0.0287 nM
HCV replicon 1AY93H; [3]
  IC50: 42.5 nM

## COC(=O)NC(C(=O)N1CCC[C@H]1c1ncc(-c2ccc3c(c2)cc2n3C(c3cc(C)c(C)s3)Oc3cc(-c4cnc([C@@H]5CCCN5C(=O)[C@@H](NC(=O)OC)C(C)C)[nH]4)cc(F)c3-2)[nH]1)C(C)(C)F (single isomer, unassigned) [Compound 40]
HCV replicon 1A; replicon 1A
  IC50: 0.002 nM
HCV replicon 1AY93H; [3]
  IC50: 1.12 nM

## COC(=O)NC(C(=O)N1[C@@H]2C[C@@H]2C[C@H]1c1ncc(-c2ccc3c(c2)cc2n3C(c3cc4c(s3)CCC4)Oc3cc(-c4cnc([C@@H]5CCCN5C(=O)[C@@H](NC(=O)OC)C(C)C)[nH]4)cc(F)c3-2)[nH]1)C(C)C (single isomer, unassigned) [Compound 660]
HCV replicon 1A; HCV replicon 1A
  IC50: 0.00338 nM
HCV replicon 1AY93H; [2]
  IC50: 1.04 nM

## COC(=O)NC(C(=O)N1[C@@H]2C[C@@H]2C[C@H]1c1ncc(-c2ccc3c(c2)cc2n3C(c3ccc(C4CC4)s3)Oc3cc(-c4cnc([C@@H]5CCCN5C(=O)[C@@H](NC(=O)OC)C(C)C)[nH]4)cc(F)c3-2)[nH]1)C1C[C@@H](C)O[C@@H](C)C1 (single isomer, unassigned) [Compound 274]
HCV replicon 1A; replicon 1A
  IC50: 0.022 nM
HCV replicon 1AY93H; [3]
  IC50: 7.87 nM

## COC(=O)N[C@H](C(=O)N1CCC[C@H]1c1ncc(-c2ccc3c(c2)OC(c2ccc(C4CC4)s2)n2c-3c(F)c3cc(-c4cnc([C@@H]5CCCN5C(=O)[C@@H](NC(=O)OC)C(C)C)[nH]4)ccc32)[nH]1)C(C)C (single isomer, unassigned) [Compound 605]
HCV replicon 1A; HCV replicon 1A
  IC50: 0.0017 nM
HCV replicon 1AY93H; [2]
  IC50: 1.26 nM

## CCc1ccc(C2Oc3cc(-c4cnc([C@@H]5CCCN5C(=O)[C@@H](NC(=O)OC)C(C)C)[nH]4)cc(F)c3-c3cc4cc(-c5cnc([C@@H]6C[C@H]7C[C@H]7N6C(=O)C(NC(=O)OC)C6CCOC(C)(C)C6)[nH]5)ccc4n32)s1 (single isomer, unassigned) [Compound 198]
HCV replicon 1A; replicon 1A
  IC50: 0.077 nM
HCV replicon 1AY93H; [3]
  IC50: 14.3 nM

## COC(=O)N[C@H](C(=O)N1CCC[C@H]1c1ncc(-c2cc(F)c3c(c2)OC(c2csc(C4CC4)c2)n2c-3cc3cc(-c4cnc([C@@H]5CCCN5C(=O)[C@@H](NC(=O)OC)C(C)C)[nH]4)ccc32)[nH]1)C(C)C (single isomer, unassigned) [Compound 321]
HCV replicon 1A; Hepatitis C virus, replicon 1A
  IC50: 0.0013 nM
HCV replicon 1AY93H; [3]
  IC50: 5.79 nM

## CCc1ccc(C2Oc3cc(-c4cnc([C@@H]5CCCN5C(=O)[C@@H](NC(=O)OC)C(C)C)[nH]4)cc(F)c3-c3cc4cc(-c5cnc([C@@H]6C[C@@H](F)CN6C(=O)C(NC(=O)OC)C6CCOC(C)(C)C6)[nH]5)ccc4n32)s1 (single isomer, unassigned) [Compound 257]
HCV replicon 1A; replicon 1A
  IC50: 0.0924 nM
HCV replicon 1AY93H; [3]
  IC50: 9.38 nM

## COC(=O)N[C@H](C(=O)N1C[C@H](F)C[C@@H]1c1ncc(-c2ccc3c(c2)OC(c2cc4ccccc4s2)n2c-3cc3cc(-c4ncc([C@@H]5C[C@@H](F)CN5C(=O)[C@@H](NC(=O)OC)C5CCOCC5)[nH]4)ccc32)[nH]1)C1CCOCC1 (mixture of isomers) [Compound 814]
HCV replicon 1A; [1]
  IC50: 0.1 nM
HCV replicon 1AY93H; Hepatitis C virus, read-out: 1A Y93H IC50, HCV replicon 1A Y93H
  IC50: 0.055 nM

## COC(=O)NC(C(=O)N1CCC[C@H]1c1ncc(-c2cc(F)c3c(c2)OC(c2ccc(C4CC4)s2)n2c-3cc3cc(-c4cnc([C@@H]5C[C@H]6C[C@H]6N5C(=O)[C@@H](NC(=O)OC)C(C)C)[nH]4)ccc32)[nH]1)C(C)(C)F (single isomer, unassigned) [Compound 100]
HCV replicon 1A; replicon 1A
  IC50: 0.0242 nM
HCV replicon 1AY93H; [3]
  IC50: 8.26 nM

## COC(=O)NC(C(=O)N1CCC[C@H]1c1ncc(-c2ccc3c(c2)cc2n3C(c3cc(C)c(C)s3)Oc3cc(-c4cnc([C@@H]5CCCN5C(=O)[C@@H](NC(=O)OC)C(C)C)[nH]4)cc(F)c3-2)[nH]1)C(C)(C)F (single isomer, unassigned) [Compound 41]
HCV replicon 1A; replicon 1A
  IC50: 0.002 nM
HCV replicon 1AY93H; [3]
  IC50: 2.45 nM

## CC[C@@H]1CC(C(NC(=O)OC)C(=O)N2CCC[C@H]2c2ncc(-c3ccc4c(c3)cc3n4C(c4ccc(C5CC5)s4)Oc4cc(-c5cnc([C@@H]6CCCN6C(=O)[C@@H](NC(=O)OC)C(C)C)[nH]5)cc(F)c4-3)[nH]2)C[C@H](CC)O1 (single isomer, unassigned) [Compound 288]
HCV replicon 1A; replicon 1A
  IC50: 0.0046 nM
HCV replicon 1AY93H; [3]
  IC50: 16 nM

## COC(=O)NC(C(=O)N1CCC[C@H]1c1ncc(-c2cc(F)c3c(c2)OC(c2ccc(C4CC4)s2)n2c-3cc3cc(-c4cnc([C@@H]5CCCN5C(=O)C(NC(=O)OC)C5C[C@@H](C)O[C@@H](C)C5)[nH]4)ccc32)[nH]1)C1C[C@@H](C)O[C@@H](C)C1 (single isomer, unassigned) [Compound 304]
HCV replicon 1A; replicon 1A
  IC50: 0.0455 nM
HCV replicon 1AY93H; [3]
  IC50: 16.8 nM

## COC(=O)NC(C(=O)N1CCC[C@H]1c1ncc(-c2ccc3c(c2)cc2n3C(c3ccc(C4CC4)s3)Oc3cc(-c4cnc([C@@H]5C[C@@H](F)CN5C(=O)[C@@H](NC(=O)OC)C(C)C)[nH]4)cc(F)c3-2)[nH]1)C(C)(C)F (single isomer, unassigned) [Compound 113]
HCV replicon 1A; replicon 1A
  IC50: 0.0428 nM
HCV replicon 1AY93H; [3]
  IC50: 3.92 nM

## COC(=O)N[C@H](C(=O)N1CCC[C@H]1c1ncc(-c2cc(F)c3c(c2)OC(c2sc(C4CC4)cc2F)n2c-3cc3cc(-c4cnc([C@@H]5CCCN5C(=O)[C@@H](NC(=O)OC)C(C)C)[nH]4)ccc32)[nH]1)C(C)C (single isomer, unassigned) [Compound 66]
HCV replicon 2B; read-out: 2B IC50, replicon 2B
  IC50: 0.23 nM
HCV replicon 1AY93H; [3]
  IC50: 0.13 nM

## COC(=O)NC(C(=O)N1CCC[C@H]1c1ncc(-c2ccc3c(c2)cc2n3C(c3ccc(C4CC4)s3)Oc3cc(-c4cnc([C@@H]5CCCN5C(=O)[C@@H](NC(=O)OC)C(C)C)[nH]4)cc(F)c3-2)[nH]1)C1CCCCO1 (single isomer, unassigned) [Compound 341]
HCV replicon 2B; read-out: 2B IC50, replicon 2B
  IC50: 1.24 nM
HCV replicon 1AY93H; [3]
  IC50: 0.52 nM

## CCc1ccc(C2Oc3cc(-c4cnc([C@@H]5CCCN5C(=O)[C@@H](NC(=O)OC)C(C)C)[nH]4)ccc3-c3c(F)c4cc(-c5cnc([C@@H]6CCCN6C(=O)[C@@H](NC(=O)OC)C(C)C)[nH]5)ccc4n32)s1 (single isomer, unassigned) [Compound 601]
HCV replicon 2B; read-out: 2B IC50, HCV replicon 2B
  IC50: 1.24 nM
HCV replicon 1AY93H; [2]
  IC50: 4 nM

## CCc1ccc(C2Oc3cc(-c4cnc([C@@H]5CCCN5C(=O)[C@@H](NC(=O)OC)C(C)C)[nH]4)cc(F)c3-c3cc4cc(-c5cnc([C@@H]6C[C@@H](F)CN6C(=O)C(NC(=O)OC)C6CCOC(C)(C)C6)[nH]5)ccc4n32)s1 (single isomer, unassigned) [Compound 255]
HCV replicon 2B; read-out: 2B IC50, replicon 2B
  IC50: 3.63 nM
HCV replicon 1AY93H; [3]
  IC50: 0.084 nM

## COC(=O)NC(C(=O)N1[C@@H]2C[C@@H]2C[C@H]1c1ncc(-c2ccc3c(c2)cc2n3C(c3ccc(C4CC4)s3)Oc3cc(-c4cnc([C@@H]5CCCN5C(=O)[C@@H](NC(=O)OC)C(C)C)[nH]4)cc(F)c3-2)[nH]1)C1CCOC(C)(C)C1 (single isomer, unassigned) [Compound 277]
HCV replicon 2B; read-out: 2B IC50, replicon 2B
  IC50: 0.58 nM
HCV replicon 1AY93H; [3]
  IC50: 0.13 nM

## COC(=O)NC(C(=O)N1CCC[C@H]1c1ncc(-c2cc(F)c3c(c2)OC(c2ccc(C4CC4)s2)n2c-3cc3cc(-c4cnc([C@@H]5C[C@H]6C[C@H]6N5C(=O)[C@@H](NC(=O)OC)C(C)C)[nH]4)ccc32)[nH]1)C(C)(C)F (single isomer, unassigned) [Compound 99]
HCV replicon 2B; read-out: 2B IC50, replicon 2B
  IC50: 1.55 nM
HCV replicon 1AY93H; [3]
  IC50: 0.53 nM

## COC(=O)N[C@H](C(=O)N1CCC[C@H]1c1ncc(-c2cc(F)c3c(c2)OC(c2ccc(CC4CC4)s2)n2c-3cc3cc(-c4cnc([C@@H]5CCCN5C(=O)[C@@H](NC(=O)OC)C(C)C)[nH]4)ccc32)[nH]1)C(C)C (single isomer, unassigned) [Compound 53]
HCV replicon 2B; Hepatitis C virus, read-out: 2B IC50 (nM), replicon 2B
  IC50: 1.95 nM
HCV replicon 1AY93H; Hepatitis C virus, read-out: 1A Y93H IC50 (nM), replicon 1AY93H
  IC50: 1.87 nM
